Results on 1 compound are retold here after patent US20170009266A1, “PROCESS FOR THE ATTACHMENT OF A GALNAC MOIETY COMPRISING A (HETERO)ARYL GROUP TO A GLCNAC MOIETY, AND PRODUCT OBTAINED THEREBY” (SYNAFFIX B.V., priority 2014, published 2017).

In one test the target is T1, Gal-T1(Y289A) (Bos taurus, UniProt P08037, I205M/L206V/P187L/V158I/Y289A).
T1 construct: host or cells: CHO K1
T1 sequence (P08037 74-402 V158I/P187L/I205M/L206V/Y289A): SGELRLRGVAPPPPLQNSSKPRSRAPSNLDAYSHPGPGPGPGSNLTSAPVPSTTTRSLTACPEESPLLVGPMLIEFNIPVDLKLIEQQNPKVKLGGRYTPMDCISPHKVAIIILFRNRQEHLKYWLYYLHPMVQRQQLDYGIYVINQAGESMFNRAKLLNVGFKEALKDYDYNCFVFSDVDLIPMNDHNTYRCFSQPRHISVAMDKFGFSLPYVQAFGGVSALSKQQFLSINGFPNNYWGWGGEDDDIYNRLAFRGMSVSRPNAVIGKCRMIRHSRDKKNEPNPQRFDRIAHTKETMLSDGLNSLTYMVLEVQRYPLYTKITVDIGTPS
Put plainly: Glycosyltransfer to trimmed trastuzumab with Gal-T1(Y289A) expressed in CHO. It counts as biochemical, bovine. The following applies: trimmed trastuzumab 10 mg/mL; UDP derivative 5 mM; enzyme 0.5 mg/mL; pH 8.0, 30° C. overnight. From the text: (§1) A set of Gal-T 1 mutants encoding residues 74-402 of bovine Gal-T 1 were transiently expressed in CHO K1 cells by Evitria (Zurich, Switzerland) which include the Gal-T1 single mutants Y289L (represented by SEQ ID NO: 26), Y289F (represented by SEQ ID NO: 27), Y289M (represented by SEQ ID NO: 28), Y289V (represented by SEQ ID NO: 29), Y289A (represented by SEQ ID NO: 30), and Y289G (represented by SEQ ID NO: 31), and the Gal-T1 double mutants Y289L,C342T (represented by SEQ ID NO: 32), and Y289M,C342T (represented by SEQ ID NO: 33). The mutants were purified using a cation exchange column (Source 15S HR16/10 column, GE Healthcare) as described above. Purified proteins were analyzed by SDS-PAGE.
Trimmed trastuzumab (10 mg/mL, […] obtained by Endo S treatment of trastuzumab, was incubated with the 4-azido-3,5-difluorobenzoyl derivative of UDP-galactosamine (23, 5 mM) and one of the Gal-T1 single mutants Y289L, Y289M, Y289A or Y289G (expressed in CHO as described above) (0.5 mg/mL) in 10 mM MnCl2 and 25 mM Tris-HCl pH 8.0 at 30° C. overnight. Mass spectral analysis of the reduced sample indicated a partial conversion of the core GlcNac(Fuc)-substituted trastuzumab heavy chain (49504 Da) into product 30 (49818 to 49825 Da, 20 to 50% of total heavy chain depending on the Gal-T1 mutant used), resulting from transfer of 23 to core GlcNAc(Fuc)-substituted trastuzumab heavy chain. […]

For the next test, the target named is T2, Gal-T1(Y289M,C342T) (Bos taurus, UniProt P08037, C342T/Y289M).
T2 construct: host or cells: CHO K1
T2 sequence (P08037 74-402 V158I/P187L/I205M/L206V/Y289M/C342T): T1 sequence (P08037 74-402 V158I/P187L/I205M/L206V/Y289A) with A216M, C269T
In words: Glycosyltransfer to trimmed trastuzumab with Gal-T1(Y289M,C342T) expressed in CHO. The format is biochemical, bovine. The following applies: trimmed trastuzumab 10 mg/mL; UDP derivative 5 mM; enzyme 1.0 mg/mL; pH 8.0, 30° C. overnight. As for the experimental part: A solution of 20 μg (modified) IgG was incubated for 1 hour at 37° C. with Fabricator™ (commercially available from Genovis, Lund, Sweden) (1.25 U/μL) in phosphate-buffered saline (PBS) pH 6.6 in a total volume of 10 μL. Fabricator™-digested samples were washed trice with milliQ using an Amicon Ultra-0.5, Ultracel-10 Membrane (Millipore) resulting in a final sample volume of approximately 40 μL. The Fc/2 fragment was analyzed by electrospray ionization time-of-flight (ESI-TOF) on a JEOL AccuTOF. Deconvoluted spectra were obtained using Magtran software.
as §1, with “SDS-PAGE. […]” for “SDS-PAGE.”

SMILES strings stand for the structures. Numbering of substitutions follows the chain as printed.

Consider `[N-]=[N+]=Nc1c(F)cc(C(=O)N[C@H]2[C@@H](OP(=O)(O)OP(=O)(O)OC[C@H]3O[C@@H](n4ccc(=O)[nH]c4=O)[C@H](O)[C@@H]3O)O[C@H](CO)[C@H](O)[C@@H]2O)cc1F` [Compound 23, 4-azido-3,5-difluorobenzoyl Derivative of UDP-GalNH2], for which the observed conversion result on Gal-T1(Y289A) was “approximately 20%”. The “conversion of core GlcNAc(Fuc)-substituted trastuzumab into product” value on Gal-T1(Y289M,C342T) was “complete conversion”.
